This is an account of results in US4954507A, “1-tertiary-alkyl-substituted naphthyridine carboxylic acid antibacterial agents” (priority 1988, dated 1990).

Values after ≈ are worked out from the molar mass of the structure shown. Like-named read-outs stand apart in the source and are kept apart here.

For one data set, the system named is Escherichia coli. Nature of the data set: MIC, microtitration dilution method, E. coli. The data set is classed as cell-based. On the procedure:
(§1) The compounds of this invention display antibacterial activity when tested by the microtitration dilution method reported by Heifetz et al., Antimicr. Agents & Chemoth., 6. 124 (1974). Minimum inhibitory concentrations (MICs, in μg/ml) for but a few representative compounds according to this invention were determined by the above-mentioned method.

The next data set concerns Klebsiella pneumoniae. As to the kind of experiment: MIC, K. pneum. The class given is cell-based. On the procedure:
as §1

A further data set has as its system Streptococcus faecium. As to the kind of experiment: MIC, microtitration dilution method, S. faeci. The class given is cell-based. Here is the method:
as §1

The next data set relates to Pseudomonas aeruginosa. As to the kind of experiment: MIC, microtitration dilution method, P. aer. The data set is classed as cell-based. On the procedure:
as §1

Another data set has as its system Staphylococcus aureus. Nature of the data set: MIC, microtitration dilution method, S. aur. The data set is classed as cell-based. Here is the method:
as §1

A further data set concerns Enterobacter cloacae. As to the kind of experiment: MIC, microtitration dilution method, E. clo. The data set is classed as cell-based.
Another data set has as its system Streptococcus faecalis. Nature of the data set: MIC, microtitration dilution method, S. faecal. The class given is cell-based. On the procedure: as §1
In another data set the test system is Klebsiella oxytoca. Nature of the data set: MIC, microtitration dilution method, K. oxyto. The data set is classed as cell-based. Conditions: Table 2. On the procedure: as §1
The nature of another data set: physchem. Conditions: water.
For data set [1] the following is noted: in words; from Tables 2, 3 and 4.
[2] abbreviates: Escherichia coli, Table 3, E. coli, read-out: MIC.
The mark [3] stands for this setting: Table 3, K. pneum., read-out: MIC.
[4] abbreviates: Enterococcus faecium, Table 3, S. faeci., read-out: MIC.
[5] abbreviates: Pseudomonas aeruginosa, Table 3, P. aer., read-out: MIC.
Setting [6] is: Staphylococcus aureus, Table 3, S. aur., read-out: MIC.
[7] abbreviates: Enterobacter cloacae, Table 3, E. clo., read-out: MIC.
The mark [8] stands for this setting: Enterococcus faecalis, Table 3, S. faecal., read-out: MIC.

Usually MIC stands for the lowest concentration that inhibits growth of the organism. As for `CC1CN(c2nc3c(cc2F)c(=O)c(C(=O)O)cn3C(C)(C)C)CC1N` (mixture of isomers) [Example 42], the MIC in the data set on Escherichia coli (Escherichia coli) was 0.008 µg/mL; with Klebsiella pneumoniae, 0.06 µg/mL; against Streptococcus faecium (Enterococcus faecium) it was 1 µg/mL; against Pseudomonas aeruginosa (Pseudomonas aeruginosa), 0.25 µg/mL; in the data set on Staphylococcus aureus (Staphylococcus aureus) it was 0.03 µg/mL; in the data set with Enterobacter cloacae (Enterobacter cloacae), 0.015 µg/mL. The MIC in the data set with Streptococcus faecalis (Enterococcus faecalis) turned out to be 0.25 µg/mL.

On to `C[C@H]1CN(c2nc3c(cc2F)c(=O)c(C(=O)O)cn3C(C)(C)C)C[C@H]1N` (relative stereo) [Example 47, 7-(cis-3-amino-4-methyl-pyrrolidin-1-yl)-1-(1,1-dimethylethyl)-1,4-dihydro-6-fluoro-4-oxo-1,8-naphthyridine-3-carboxylic acid], for which the MIC turned out to be 0.25 µg/mL (≈ 0.69 µM) against Escherichia coli (Escherichia coli); 0.03 µg/mL (≈ 0.0828 µM) with Klebsiella pneumoniae; 1 µg/mL (≈ 2.76 µM) in the data set with Streptococcus faecium (Enterococcus faecium); 0.5 µg/mL (≈ 1.38 µM) against Pseudomonas aeruginosa (Pseudomonas aeruginosa); 0.015 µg/mL (≈ 0.0414 µM) with Staphylococcus aureus (Staphylococcus aureus); 0.13 µg/mL (≈ 0.359 µM) against Enterobacter cloacae (Enterobacter cloacae). For the same molecule, inhibition of growth against Streptococcus faecalis (Enterococcus faecalis) (MIC) required 0.13 µg/mL (≈ 0.359 µM).

As for `CS(=O)(=O)O.C[C@@H]1CN(c2nc3c(cc2F)c(=O)c(C(=O)O)cn3C(C)(C)C)C[C@H]1N` (relative stereo) [Example 48, 7-(trans-3-amino-4-methylpyrrolidin-1-yl)-1-(1,1-dimethylethyl)-1,4-dihydro-6-fluoro-4-oxo-1,8-naphthyridine-3-carboxylic acid (methanesulfonate)], the MIC in the data set with Escherichia coli (Escherichia coli) was 0.015 µg/mL; in the data set with Klebsiella pneumoniae, 0.06 µg/mL; against Streptococcus faecium (Enterococcus faecium), 0.5 µg/mL; in the data set on Pseudomonas aeruginosa (Pseudomonas aeruginosa) it was 0.25 µg/mL; in the data set on Staphylococcus aureus (Staphylococcus aureus), 0.008 µg/mL; in the data set with Enterobacter cloacae (Enterobacter cloacae) it was 0.015 µg/mL. This molecule also came in with a minimum inhibitory concentration (MIC) against Streptococcus faecalis (Enterococcus faecalis) of 0.06 µg/mL.

In the case of `O=C(O)c1cn(C2CC2)c2cc(N3CCNCC3)c(F)cc2c1=O` [Cip., 1-cyclopropyl-6-fluoro-1,4-dihydro-7-(1-piperazinyl)-4-oxo-quinoline-3-carboxylic acid, reference compound], the MIC in the data set on Escherichia coli (setting [2]) is 0.015 µg/mL (≈ 0.0453 µM); against Klebsiella pneumoniae, 0.03 µg/mL (≈ 0.0905 µM); in the data set with Streptococcus faecium (Enterococcus faecium), 8 µg/mL (≈ 24.1 µM); against Pseudomonas aeruginosa (Pseudomonas aeruginosa), 0.13 µg/mL (≈ 0.392 µM); against Staphylococcus aureus (Staphylococcus aureus), 0.13 µg/mL (≈ 0.392 µM).

With `CC(C)(C)n1cc(C(=O)O)c(=O)c2cc(F)c(N3C[C@@H]4CC[C@H]3CN4)nc21` [Example 23, 7-(1S,4S-2,5-DIAZABICYCLO[2.2.2]OCTAN-2-YL)-1-(1,1-DIMETHYLETHYL)-1,4-DIHYDRO-6-FLUORO-4-OXO-1,8-NAPHTHYRIDINE-3-CARBOXYLIC ACID], the MIC came to 130 µg/mL (≈ 347 µM) against Escherichia coli (Table 2, E. coli); 500 µg/mL (≈ 1340 µM) in the data set with Klebsiella oxytoca; 2000 µg/mL (≈ 5340 µM) against Streptococcus faecium (Table 2, S. faeci.); 1000 µg/mL (≈ 2670 µM) against Pseudomonas aeruginosa (Table 2, P. aer.); 30 µg/mL (≈ 80.1 µM) with Staphylococcus aureus (Table 2, S. aur.); 60 µg/mL (≈ 160 µM) against Enterobacter cloacae (Table 2, E. clo.). The MIC against Streptococcus faecalis (Table 2, S. faecal.) was determined as 500 µg/mL (≈ 1340 µM).

As usually defined, the solubility is the concentration that dissolves in the medium under given conditions. The molecule `CC(C)(C)n1cc(C(=O)O)c(=O)c2cc(F)c(N3C[C@H]4C[C@@H]3CN4)nc21` [Example 30] yielded a solubility in “physchem” of 80 µg/mL (≈ 222 µM). Also, the “combination of anti-bacterial, toxicity, and water-solubility properties” value in data set [1] was “highly advantageous combination of the above mentioned properties”. Besides, the MIC in the data set with Escherichia coli (setting [2]) came to 0.06 µg/mL (≈ 0.166 µM); in the data set with Klebsiella pneumoniae (setting [3]) it was 0.06 µg/mL (≈ 0.166 µM); with Streptococcus faecium (setting [4]) it was 2 µg/mL (≈ 5.55 µM); in the data set on Pseudomonas aeruginosa (setting [5]), 0.13 µg/mL (≈ 0.361 µM); with Staphylococcus aureus (setting [6]) it was 0.06 µg/mL (≈ 0.166 µM); in the data set on Enterobacter cloacae (setting [7]), 0.03 µg/mL (≈ 0.0832 µM). Moreover, the MIC in the data set with Streptococcus faecalis (setting [8]) was 0.25 µg/mL (≈ 0.694 µM).

With `CC(C)(C)n1cc(C(=O)O)c(=O)c2cc(F)c(N3CCC(N)C3)nc21` (stereo not shown) [Example 36, 7-(3-AMINO-1-PYRROLIDINYL)-1-(1,1-DIMETHYLETHYL)-1,4-DIHYDRO-6-FLUORO-4-OXO-1,8-NAPHTHYRIDINE-3-CARBOXYLIC ACID], the MIC against Escherichia coli (Escherichia coli) was 0.13 µg/mL (≈ 0.373 µM); in the data set on Klebsiella pneumoniae, 0.13 µg/mL (≈ 0.373 µM); in the data set with Streptococcus faecium (Enterococcus faecium), 1 µg/mL (≈ 2.87 µM); with Pseudomonas aeruginosa (Pseudomonas aeruginosa), 0.25 µg/mL (≈ 0.718 µM); against Staphylococcus aureus (Staphylococcus aureus), 0.015 µg/mL (≈ 0.0431 µM); in the data set on Enterobacter cloacae (Enterobacter cloacae), 0.06 µg/mL (≈ 0.172 µM). Moreover, the lowest concentration to inhibit growth in the data set with Streptococcus faecalis (Enterococcus faecalis) (MIC) was 0.25 µg/mL (≈ 0.718 µM).

For the molecule `CC(C)(C)n1cc(C(=O)O)c(=O)c2cc(F)c(N3CC[C@@H](N)C3)nc21` [Example 45, 7-[(R)-3-AMINO-PYRROLIDINYL]-1-(1,1-DIMETHYLETHYL)-1,4-DIHYDRO-6-FLUORO-4-OXO-1,8-NAPHTHYRIDINE-3-CARBOXYLIC ACID, METHANESULFONATE], the MIC against Escherichia coli (Escherichia coli) came to 0.06 µg/mL; with Klebsiella pneumoniae, 0.13 µg/mL; in the data set with Streptococcus faecium (Enterococcus faecium) it was 1 µg/mL; in the data set with Pseudomonas aeruginosa (Pseudomonas aeruginosa) it was 0.25 µg/mL; in the data set on Staphylococcus aureus (Staphylococcus aureus), 0.15 µg/mL; against Enterobacter cloacae (Enterobacter cloacae), 0.06 µg/mL. This molecule had an MIC in the data set on Streptococcus faecalis (Enterococcus faecalis) of 0.13 µg/mL.

Consider `CC(C)(C)n1cc(C(=O)O)c(=O)c2cc(F)c(N3CC[C@H](N)C3)nc21` [Example 46, 7-[(S)-3-amino-1-pyrrolidinyl]-1-(1,1-dimethylethyl)-6-fluoro-1,4-dihydro-4-oxo-1,8-naphthyridine-3-carboxylic acid], for which the MIC amounted to 0.015 µg/mL (≈ 0.0431 µM) against Escherichia coli (Escherichia coli); 0.03 µg/mL (≈ 0.0861 µM) in the data set on Klebsiella pneumoniae; 0.25 µg/mL (≈ 0.718 µM) with Streptococcus faecium (Enterococcus faecium); 0.06 µg/mL (≈ 0.172 µM) with Pseudomonas aeruginosa (Pseudomonas aeruginosa); 0.008 µg/mL (≈ 0.023 µM) against Staphylococcus aureus (Staphylococcus aureus); 0.008 µg/mL (≈ 0.023 µM) in the data set with Enterobacter cloacae (Enterobacter cloacae). In the data set with Streptococcus faecalis (Enterococcus faecalis), this molecule had an MIC of 0.03 µg/mL (≈ 0.0861 µM).

As to `CCn1cc(C(=O)O)c(=O)c2cc(F)c(N3CCNCC3)cc21` [Nor., 1-ethyl-6-fluoro-1,4-dihydro-7-(1-piperazinyl)-4-oxo-quinoline-3-carboxylic acid, reference compound], the MIC stood at 0.06 µg/mL (≈ 0.188 µM) with Escherichia coli (setting [2]); 0.03 µg/mL (≈ 0.0939 µM) with Klebsiella pneumoniae (setting [3]); 8 µg/mL (≈ 25.1 µM) with Streptococcus faecium (setting [4]); 0.5 µg/mL (≈ 1.57 µM) with Pseudomonas aeruginosa (setting [5]); 0.25 µg/mL (≈ 0.783 µM) in the data set on Staphylococcus aureus (setting [6]); 0.06 µg/mL (≈ 0.188 µM) with Enterobacter cloacae (setting [7]). Besides, in the data set on Streptococcus faecalis (setting [8]), the MIC stood at 2 µg/mL (≈ 6.26 µM).
